Measurements published in paper PMC2033546, “Effects of somatostatin analogue RC-160 and bombesin/gastrin-releasing peptide antagonists on the growth of human small-cell and non-small-cell lung carcinomas in nude mice” (British Journal of Cancer, 1994).
Where no end group is shown, it is not given here. [ ]: non-standard residue; d: D form.

Legend:
[1] = Serum gastrin radioimmunoassay in nude mice; format: in vivo; details: both experiments, after chronic treatment, vs controls
[2] = Serum growth hormone (GH) radioimmunoassay in nude mice; format: in vivo
Excerpt: Br. J. Cancer (1994). 70, 886 892 ? Macmillan Press Ltd.. […] Bombesin GRP antagonists. […] Lung carcinoma is the leading cause of cancer-related deaths in the western world. It is estimated that in 1992 there were approximately 168,000 new cases of lung cancer in the US and that about 146,000 deaths occurred from this disease (Boring et al., 1992). […] CeLs were passaged weekly and routinely monitored for myco- plasma contamination using a detection kit (Boehringer- Mannheim, Mannheim, Germany). […] The number of mitotic and apoptotic cells per 1,000 cells was determined, and the percentage area of necrosis in tumour sections was examined using the point-counting method (Szepeshazi et al., 1991, 1992), in which the crossing points of an ocular net that coincide with necrosis in various sections are counted. Radiommunoassays Serum levels of growth hormone were determined by double- antibody radioimmunoassay (RIA) using materials supplied by the National Hormone and Pituitary Program of the National Institute of Diabetes and Digestive and Kidney Diseases (NIDDK).

[3] = tested on: EGF receptors in membranes of SCLC H69 tumours; assay: EGF receptor binding on H69 tumour membranes after in vivo treatment; parameters: species or system human
Excerpt: Br. J. Cancer (1994). 70, 886 892 ? Macmillan Press Ltd.. […] Bombesin GRP antagonists. […] Lung carcinoma is the leading cause of cancer-related deaths in the western world. It is estimated that in 1992 there were approximately 168,000 new cases of lung cancer in the US and that about 146,000 deaths occurred from this disease (Boring et al., 1992). […] The growth factors such as bombesin/gastrin-releasing pep- tide (GRP), epidermal growth factor, (EGF), transforming growth factor a (TGF-x) and insulin-like growth factor I(IGF-I) appear to play a role in the proliferation and pro- gression of lung cancer (Cuttitta et al., 1985; Veale et al., 1987; Minuto et al., 1988; Siegfried & Owens, 1988; Macaulay et al., 1990; Tateishi et al., 1991; Damstrup et al., 1992; Sethi & Rozengurt, 1992; Rabiasz et al., 1992; Moody & Cuttitta, 1993). […] Tpi is 2,3,4,9-tetrahydro- Correspondence: A.V. Schally (151). VA Medical Center, 1601 Per- dido Street. New Orleans, LA 70146. USA. Received 1 March 1994; and in revised form 5 July 1994. Br. J. Cancer (1994), 70, 886-892 C Macmillan Press Ltd., 1994 PEPTIDE ANALOGUES IN LUNG CANCER 8U7 lH-pyrido [3,4bjindol-3-carboxylic acid, a conformationally constrained secondary amine derivate of tryptophan and Tac is thiazolidine-4-carboxylic acid. […] Animals Male athymic NCr nulmu nude mice, approximately 6 weeks old on arrival, were obtained from the NCI (Bethesda, MD, USA) and maintained under pathogen-limited conditions. Cell lines The human SCLC cell line NCI-H69, was obtained from the American Type Cell Culture (ATCC), Rockville, MD, USA and the non-SCLC cell line NCI-H157, from Dr H. Oie, NCI-Navy Medical Oncology Branch, Bethesda, MD, USA. These cell lines were cultured in RPMI-1640 medium supple- mented with 4 mM L-glutamine, 50 units ml-I penicilln G sodium, SOigml-' streptomycin sulphate, 0.125pgml-' amphotericin B and 10% fetal bovine serum at 3TC in a humidified 95% air/5% carbon dioxide atmosphere. CeLs were passaged weekly and routinely monitored for myco- plasma contamination using a detection kit (Boehringer- Mannheim, Mannheim, Germany). All culture media com- ponents were purchased from Gibco (Grand Island, NY, USA). Receptor assays Preparation of membranes for receptor studies was described previously (Halmos et al., 1993). Iodinated EGF and IGF-I were purchased from Amersham (Arlington Heights, IL, USA). Radioiodination of other peptides and receptor bind- ing of EGF, IGF-I, somatostatin and bombesin/GRP were performed as previously described (Srkalovic et al., 1989; Szepeshazi et al., 1992). Complete displacement assays on tumour membranes were done only once because of the shortage of tumour material. The LIGAND PC computerised curve-fitting programme of Munson and Rodbard (1980) was used to determine the types of receptor binding, dissociation constant (Kd) values, and the maximal binding capacity (BDj) of receptors. […] The number of mitotic and apoptotic cells per 1,000 cells was determined, and the percentage area of necrosis in tumour sections was examined using the point-counting method (Szepeshazi et al., 1991, 1992), in which the crossing points of an ocular net that coincide with necrosis in various sections are counted. Radiommunoassays Serum levels of growth hormone were determined by double- antibody radioimmunoassay (RIA) using materials supplied by the National Hormone and Pituitary Program of the National Institute of Diabetes and Digestive and Kidney Diseases (NIDDK).

human SCLC cell line H69 = assay: [3H]Thymidine incorporation assay in H69 cells; format: cell-based; details: for [3H]Thymidine incorporation: Table V, mean s.e.
Excerpt: Br. J. Cancer (1994). 70, 886 892 ? Macmillan Press Ltd.. […] Bombesin GRP antagonists. […] Lung carcinoma is the leading cause of cancer-related deaths in the western world. It is estimated that in 1992 there were approximately 168,000 new cases of lung cancer in the US and that about 146,000 deaths occurred from this disease (Boring et al., 1992). […] The growth factors such as bombesin/gastrin-releasing pep- tide (GRP), epidermal growth factor, (EGF), transforming growth factor a (TGF-x) and insulin-like growth factor I(IGF-I) appear to play a role in the proliferation and pro- gression of lung cancer (Cuttitta et al., 1985; Veale et al., 1987; Minuto et al., 1988; Siegfried & Owens, 1988; Macaulay et al., 1990; Tateishi et al., 1991; Damstrup et al., 1992; Sethi & Rozengurt, 1992; Rabiasz et al., 1992; Moody & Cuttitta, 1993). […] Tpi is 2,3,4,9-tetrahydro- Correspondence: A.V. Schally (151). VA Medical Center, 1601 Per- dido Street. New Orleans, LA 70146. USA. Received 1 March 1994; and in revised form 5 July 1994. Br. J. Cancer (1994), 70, 886-892 C Macmillan Press Ltd., 1994 PEPTIDE ANALOGUES IN LUNG CANCER 8U7 lH-pyrido [3,4bjindol-3-carboxylic acid, a conformationally constrained secondary amine derivate of tryptophan and Tac is thiazolidine-4-carboxylic acid. […] Animals Male athymic NCr nulmu nude mice, approximately 6 weeks old on arrival, were obtained from the NCI (Bethesda, MD, USA) and maintained under pathogen-limited conditions. Cell lines The human SCLC cell line NCI-H69, was obtained from the American Type Cell Culture (ATCC), Rockville, MD, USA and the non-SCLC cell line NCI-H157, from Dr H. Oie, NCI-Navy Medical Oncology Branch, Bethesda, MD, USA. These cell lines were cultured in RPMI-1640 medium supple- mented with 4 mM L-glutamine, 50 units ml-I penicilln G sodium, SOigml-' streptomycin sulphate, 0.125pgml-' amphotericin B and 10% fetal bovine serum at 3TC in a humidified 95% air/5% carbon dioxide atmosphere. CeLs were passaged weekly and routinely monitored for myco- plasma contamination using a detection kit (Boehringer- Mannheim, Mannheim, Germany). All culture media com- ponents were purchased from Gibco (Grand Island, NY, USA). Receptor assays Preparation of membranes for receptor studies was described previously (Halmos et al., 1993). Iodinated EGF and IGF-I were purchased from Amersham (Arlington Heights, IL, USA). Radioiodination of other peptides and receptor bind- ing of EGF, IGF-I, somatostatin and bombesin/GRP were performed as previously described (Srkalovic et al., 1989; Szepeshazi et al., 1992). Complete displacement assays on tumour membranes were done only once because of the shortage of tumour material. The LIGAND PC computerised curve-fitting programme of Munson and Rodbard (1980) was used to determine the types of receptor binding, dissociation constant (Kd) values, and the maximal binding capacity (BDj) of receptors. In order to determine the specificity of the binding sites for radiolabelled EGF, IGF-I, somatostatin and bombesin to lung cancer membranes, various structuraly related and unrelated peptides were tested for their ability to inhibit the binding of the tracers. Histological procedure The histological procedures were the same as described previously (Szepeshazi et al., 1991, 1992). The number of mitotic and apoptotic cells per 1,000 cells was determined, and the percentage area of necrosis in tumour sections was examined using the point-counting method (Szepeshazi et al., 1991, 1992), in which the crossing points of an ocular net that coincide with necrosis in various sections are counted. Radiommunoassays Serum levels of growth hormone were determined by double- antibody radioimmunoassay (RIA) using materials supplied by the National Hormone and Pituitary Program of the National Institute of Diabetes and Digestive and Kidney Diseases (NIDDK).

## [dF]CY[dW]KVCW-NH2 (cysteine pairing not given here) [RC-160, Somatostatin analogue RC-160]
[1]
  Serum gastrin levels (in words): significantly decreased serum growth hormone and gastrin levels
[2]; both experiments, after chronic treatment, vs controls
  Serum GH levels (in words): significantly decreased serum growth hormone and gastrin levels
[2]; mice treated with RC-160 as compared with control mice
  Decrease in serum GH levels: about 48%
[3]; Table IV, Experiment I (SCLC-H69), tumour membranes after in vivo treatment, control 278, ten-point displacement in triplicate tubes, done once
  EGF maximal binding capacity (Bmax): 174 fmol mg' protein
[3]; after in vivo treatment
  EGF receptors on H69 tumours (in words): down-regulated
Human SCLC cell line H69; "At 0.0 ILg ml-'" RC-160, 5 days of incubation, H69 cells
  Suppression of DNA synthesis: about 43%
Human SCLC cell line H69; RC-160 0.001 to 10.0 µg/ml, 5 days, RC-3005 or RC-3009 5.0 and 25.0 µg/ml, 3 days
  [3H]thymidine incorporation into DNA of H69 cells (in words): significantly inhibited
Human SCLC cell line H69; 0.001 µg/ml, 5 days, *P<0.05 vs control
  [3H]Thymidine incorporation: 81.6 4.6* per cent of control
Human SCLC cell line H69; 0.01 µg/ml, 5 days, *P<0.05 vs control
  [3H]Thymidine incorporation: 80.0 4.1* per cent of control
Human SCLC cell line H69; 0.1 µg/ml, 5 days, **P<0.01 vs control
  [3H]Thymidine incorporation: 71.6 ± 3.4** per cent of control
